Laboratory results as given in patent US20240299481A1, “STEPHANIA CEPHARANTHA-DERIVED ALKALOID-CONTAINING PREPARATION” (JAPAN AS REPRESENTED BY DIRECTOR-GENERAL OF NATIONAL …, priority 2021, published 2024).

Tested on: novel coronavirus mutant strain (alpha mutant strain)
Type: cell-based, SARS-COV-2

Row | SMILES | antiviral effect (number of viral RNA with increasing addition concentration) | antiviral effect compared with the preparation / other alkaloids
1 | COc1cc2c3cc1Oc1c(OC)c(OC)cc4c1[C@@H](Cc1ccc(O)c(c1)Oc1ccc(cc1)C[C@@H]3N(C)CC2)N(C)CC4 [Berbamine] | showed antiviral effects | weak antiviral effect
2 | COc1ccc2cc1Oc1ccc(cc1)C[C@H]1c3c(cc4c(c3Oc3cc5c(cc3OC)CCN(C)[C@@H]5C2)OCO4)CCN1C [Cepharanthine] | showed antiviral effects | comparable to the Stephania cepharantha-derived alkaloid-containing preparation
3 | COc1cc2c3c(c1OC)Oc1ccc(cc1)C[C@@H]1c4c(cc(OC)c(OC)c4Oc4ccc(cc4)C[C@H]3N(C)CC2)CCN1C [Cycleanine] | showed antiviral effects | comparable to the Stephania cepharantha-derived alkaloid-containing preparation
4 | COc1ccc2cc1Oc1ccc(cc1)C[C@H]1c3cc(c(OC)cc3CCN1C)Oc1c(OC)c(OC)cc3c1[C@@H](C2)N(C)CC3 [Isotetrandrine] | showed antiviral effects | comparable to the Stephania cepharantha-derived alkaloid-containing preparation
